Values after ≈ are worked out from the molar mass of the structure shown.
Assays:
HSV-1 = assay: HSV Antiviral (ELISA) assay; assay type: cell-based; conditions: HSV-1 in Vero cells
In short: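 Replication measured as glycoprotein D signal in fixed cells: anti-gD antibody plus β-galactosidase-linked secondary, fluorogenic substrate read at 365/450 nm. Vero cells (2% FBS DMEM) received compound 30 min pre-infection, HSV-1 MOI 0.006, ~24 h incubation; IC50 relative to no-compound fluorescence.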

VZV strain Ellen = assay: VZV Antiviral (ELISA) assay; assay type: cell-based; conditions: VZV strain Ellen in HFF cells; for % inhibition 10 ug/ml VZV: at 10 ug/ml
In short: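 Low-MOI (<0.1) Ellen infection of HFF overnight; cell mix plated 3.5×10^4/well with compound, DMEM + 2% FBS, 3 d, 37° C, 5% CO2. Fix, anti-gpII mAb ELISA, MUG substrate, fluorescence. IC50 vs compound-free signal.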

[1] = tested on: HCMV recombinant mutant virus (RV145); assay: HCMV microtiter plate assay (beta-glucuronidase reporter); assay type: cell-based, Human Cytomegalovirus; conditions: HCMV in human foreskin fibroblasts
In short: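 Replication was read out as virus-encoded β-glucuronidase activity, measured with a chromogenic or fluorogenic glucuronide substrate in cell lysates at 96 h post-infection. Infection of human foreskin fibroblasts with RV145 took place with compound present. IC50 was derived from a range of inhibitor amounts.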

SMILES | IC50 (ug/ml) HSV (HSV-1) [µg/mL] | IC50 (ug/ml) VZV (VZV strain Ellen) [µg/mL] | % inhibition 10 ug/ml VZV (VZV strain Ellen) [%] | IC50 (ug/ml) HCMV [1] [µg/mL]
COc1cc(OC)c(NC(=S)Nc2ccc(NC(=O)c3ccc(C)s3)cc2)cc1Cl [Example 145] | 2 (≈ 4.33 µM) | >15 | 51 | >10
COc1cc(OC)c(NC(=S)Nc2ccc(NC(=O)c3cccc4cccnc34)cc2)cc1Cl [Example 146] | >10 | >10 | 14 | >10
COc1cc(OC)c(NC(=S)Nc2ccc(NC(=O)c3cccn3C)cc2)cc1Cl [Example 147] | 10 (≈ 22.5 µM) | >10 | 42 | >50
COc1cc(OC)c(NC(=S)Nc2ccc(NC(=O)c3cc4ccccc4s3)cc2)cc1Cl [Example 153] | 2 (≈ 4.02 µM) | >10 | 8 | >10
COc1cc(OC)c(NC(=S)Nc2ccc(NC(=O)c3cc4ccccc4o3)cc2)cc1Cl [Example 154] | 4 (≈ 8.3 µM) | >10 | 23 | 10 (≈ 20.7 µM)
COc1cc(OC)c(NC(=S)Nc2ccc(NC(=O)c3ccncc3)cc2)cc1Cl [Example 155] | 5 (≈ 11.3 µM) | >10 | 22 | 5 (≈ 11.3 µM)
COc1cc(OC)c(NC(=S)Nc2ccc(NC(=O)c3nccc4ccccc34)cc2)cc1Cl [Example 158] | 4 (≈ 8.11 µM) | >15 | 52 | >10
COc1cc(OC)c(NC(=S)Nc2ccc(NC(=O)c3ccc4ccccc4n3)cc2)cc1Cl [Example 159] | >10 | >10 | 62 | >10
COc1cc(OC)c(NC(=S)Nc2ccc(NC(=O)c3cccnc3)cc2)cc1Cl [Example 160] | 2.5 (≈ 5.64 µM) | >10 | 27 | >10
COc1cc(OC)c(NC(=S)Nc2ccc(NC(=O)c3ccc([N+](=O)[O-])o3)cc2)cc1Cl [Example 161] | 3 (≈ 6.29 µM) | 5 (≈ 10.5 µM) | 113 | >10
COc1cc(OC)c(NC(=S)Nc2ccc(NC(=O)c3ccc(Cl)o3)cc2)cc1Cl [Example 163] | 3 (≈ 6.43 µM) | >10 | 30 | 7 (≈ 15 µM)
COc1cc(OC)c(NC(=S)Nc2ccc(NC(=O)c3ccoc3)cc2)cc1Cl [Example 166] | 9 (≈ 20.8 µM) | >10 | 30 | >10
COc1cc(OC)c(NC(=S)Nc2ccc(NC(=O)c3occc3C)cc2)cc1Cl [Example 167] | 10 (≈ 22.4 µM) | 3.8 (≈ 8.52 µM) | 70 | 9 (≈ 20.2 µM)
COc1cc(OC)c(NC(=S)Nc2ccc(NC(=O)c3ccc(Br)o3)cc2)cc1Cl [Example 168] | 3 (≈ 5.87 µM) | >10 | – | 2.5 (≈ 4.89 µM)
COc1cc(OC)c(NC(=S)Nc2ccc(NC(=O)c3cc(Br)co3)cc2)cc1Cl [Example 169] | 3 (≈ 5.87 µM) | >10 | 26 | 4 (≈ 7.83 µM)
COc1cc(OC)c(NC(=S)Nc2ccc(NC(=O)c3ccco3)cc2)cc1Cl [Example 170] | >10 | >10 | 32 | 0.2 (≈ 0.463 µM)

SMILES | IC50 (ug/ml) HSV (HSV-1) [µg/mL] | IC50 (ug/ml) VZV (VZV strain Ellen) [µg/mL] | % inhibition 10 ug/ml VZV (VZV strain Ellen) [%] | IC50 (ug/ml) HCMV [1] [µg/mL]
COc1cc(OC)c(NC(=S)Nc2ccc(NC(=O)c3cncc4ccccc34)cc2)cc1Cl [Example 172] | >10 | >10 | 25 | >10
COc1cc(OC)c(NC(=S)Nc2ccc(NC(=O)c3csnn3)cc2)cc1Cl [Example 173] | >10 | >10 | 31 | 0.08 (≈ 0.178 µM)
COc1cc(OC)c(NC(=S)Nc2ccc(NC(=O)c3c[nH]nn3)cc2)cc1Cl [Example 174] | 50 (≈ 116 µM) | >10 | 8 | 6 (≈ 13.9 µM)
COc1cc(OC)c(NC(=S)Nc2ccc(NC(=O)c3sccc3Br)cc2)cc1Cl [Example 175] | 2 (≈ 3.8 µM) | >10 | 24 | >10
O=C(Nc1ccc(NC(=S)Nc2ccc(Cl)c(C(F)(F)F)c2)cc1)c1csnn1 [Example 200] | >10 | >15 | 55 | 0.02 (≈ 0.0437 µM)
COc1c(Cl)cc(NC(=S)Nc2ccc(NC(=O)c3csnn3)cc2)cc1Cl [Example 201] | >10 | 8 (≈ 17.6 µM) | 78 | 0.023 (≈ 0.0506 µM)
COc1cc(OC)c(NC(=S)Nc2ccc(NC(=O)c3ccccn3)cc2)cc1Cl [Example 224] | 3.5 (≈ 7.9 µM) | >10 | 30 | 0.8 (≈ 1.81 µM)
COc1cc(OC)c(NC(=S)Nc2ccc(NC(=O)c3ccnc4ccccc34)cc2)cc1Cl [Example 225] | 1 (≈ 2.03 µM) | >10 | 30 | >10
Cc1ccc(NC(=S)Nc2ccc(NC(=O)c3csnn3)cc2)cc1Cl [Example 230] | >10 | >10 | – | 0.015 (≈ 0.0371 µM)
Cc1ccc(NC(=S)Nc2ccc(NC(=O)c3ccco3)cc2)cc1Cl [Example 233] | >10 | >10 | 30 | 0.09 (≈ 0.233 µM)
Cc1ccc(NC(=S)Nc2ccc(NC(=O)c3ccccn3)cc2)cc1Cl [Example 236] | >10 | >10 | 40 | 0.7 (≈ 1.76 µM)
CN(c1ccc(NC(=S)Nc2ccc(NC(=O)c3csnn3)cc2)cc1Cl)C1CCCCC1 [Example 237] | >10 | >10 | 17 | 0.02 (≈ 0.0399 µM)
CN(c1ccc(NC(=S)Nc2ccc(NC(=O)c3ccco3)cc2)cc1Cl)C1CCCCC1 [Example 246] | >10 | 4 (≈ 8.28 µM) | 37 | 0.05 (≈ 0.104 µM)
CN(c1ccc(NC(=S)Nc2ccc(NC(=O)c3ccccn3)cc2)cc1Cl)C1CCCCC1 [Example 249] | >10 | >10 | 59 | 0.4 (≈ 0.81 µM)
COc1cc(OC)c(NC(=S)Nc2ccc(NC(=O)c3snnc3-c3ccccc3)cc2)cc1Cl [Example 264] | >10 | >10 | 28 | >10
COc1cc(OC)c(NC(=S)Nc2ccc(NC(=O)c3nnsc3C)cc2)cc1Cl [Example 279] | >10 | >10 | – | >10

— patent US6426355B1, “Heterocyclic carboxamide-containing thiourea inhibitors of herpes viruses containing phenylenediamine group” (American Home Products, priority 1998, dated 2002)
